According to patent US20100121049A1, “INDENOISOQUINOLINONE ANALOGS AND METHODS OF USE THEREOF” (INOTEK PHARMACEUTICALS CORPORATION, priority 2007, published 2010):

Biological target: T1, PARP (Mus musculus, UniProt P11103)
T1 construct: PARP Activity in Cultured Macrophages, Using a Whole-Cell Based Assay; host or cells: murine RAW macrophages
Test: PARP activity in cultured macrophages, whole-cell based assay (3H-NAD+ incorporation after hydrogen peroxide)
Conditions: murine RAW macrophages; compound 1 hour prior to hydrogen peroxide (0.5 mM) for 25 minutes; PARP activity by 3H-NAD+
Method: Effect of Indenoisoquinolinone Analogs on PARP Activity in Cultured Macrophages, Using a Whole-Cell Based Assay
The murine RAW macrophages (ATCC, American Type Culture Collection, Manassas, Va.) were grown in RPMI […] (Invitrogen Life Technologies; Carlsbad, Calif.) medium supplemented with 10% heat-inactivated FBS, 2 mM L-glutamine, and 100 U/ml of penicillin and streptomycin. Cells, between passages 5 and 15, were seeded at a density of 250,000 cells/well in 12 well plates and allowed to grow 48 hours before use. Growth medium was changed on the day of use. Cells were treated with an Indenoisoquinolinone Analog diluted in a growth medium supplemented with 10% fetal bovine serum (FBS) for 1 hour prior to the addition of hydrogen peroxide (0.5 mM) for a further 25 minutes. For the measurement of PARP activity, media was removed and replaced with 0.5 ml of the assay buffer (56 mM HEPES-pH 7.5, 28 mM KCl, 28 mM NaCl, 2 mM MgCl2, 0.01% digitonin, and 0.5 μCi/m1 of ^3H-NAD^+) for 20 minutes. After aspirating the assay buffer, cells were lysed and transferred to eppendorf tubes containing 250 μl of 50% ice-cold trichloroacetic acid (TCA), which were then placed at 4° C. for 4 hours. Samples were centrifuged at 10,000 g for 10 minutes and supernatant removed. The pellets were washed twice with 500 μl of ice-cold 5% w/v TCA. The pellets were then solubilized in 250 μl of NaOH (0.1 M) containing 2% SDS overnight at 37° C. and the PARP activity was then determined by measuring the radioactivity incorporated using a Wallac scintillation counter. The solubilized protein (250 μl) was mixed with 5 ml of scintillation fluid (ScintiSafe Plus, Fisher Scientific) before being counted for 3 minutes. EC50 values were determined from a dose-response curve.

T1 sequence (P11103 whole entry): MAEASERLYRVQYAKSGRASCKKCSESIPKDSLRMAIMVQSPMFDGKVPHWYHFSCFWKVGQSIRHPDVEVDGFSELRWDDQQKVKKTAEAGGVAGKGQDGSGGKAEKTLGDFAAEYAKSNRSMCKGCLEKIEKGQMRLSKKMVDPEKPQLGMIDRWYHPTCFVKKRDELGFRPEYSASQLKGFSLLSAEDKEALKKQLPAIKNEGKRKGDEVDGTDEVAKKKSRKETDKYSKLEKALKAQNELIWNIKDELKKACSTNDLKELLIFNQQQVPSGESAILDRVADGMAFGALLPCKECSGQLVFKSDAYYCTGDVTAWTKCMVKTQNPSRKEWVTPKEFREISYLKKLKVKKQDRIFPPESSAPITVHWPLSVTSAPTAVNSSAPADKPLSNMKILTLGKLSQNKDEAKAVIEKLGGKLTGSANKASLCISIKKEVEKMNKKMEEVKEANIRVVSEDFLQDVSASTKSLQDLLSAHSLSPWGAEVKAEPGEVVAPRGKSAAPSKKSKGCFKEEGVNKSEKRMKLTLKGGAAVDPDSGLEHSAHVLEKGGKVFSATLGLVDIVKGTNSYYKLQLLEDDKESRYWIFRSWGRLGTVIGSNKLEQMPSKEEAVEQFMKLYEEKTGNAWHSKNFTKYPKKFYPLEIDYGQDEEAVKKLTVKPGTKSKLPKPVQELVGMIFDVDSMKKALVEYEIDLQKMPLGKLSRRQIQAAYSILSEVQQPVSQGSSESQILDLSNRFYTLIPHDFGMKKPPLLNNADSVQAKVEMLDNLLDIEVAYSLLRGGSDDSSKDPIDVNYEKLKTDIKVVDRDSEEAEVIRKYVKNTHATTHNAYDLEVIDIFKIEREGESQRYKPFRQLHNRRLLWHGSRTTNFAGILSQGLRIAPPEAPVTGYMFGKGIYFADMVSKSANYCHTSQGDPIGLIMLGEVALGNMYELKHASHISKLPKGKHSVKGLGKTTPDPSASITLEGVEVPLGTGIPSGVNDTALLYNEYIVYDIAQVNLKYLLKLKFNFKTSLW

Compound | EC50
N#CCCN1CCN(Cc2ccc3c(c2)Cc2c-3[nH]c(=O)c3ccccc23)CC1 [IIb-66, 9-{1-[4-(2-Cyanoethyl)piperazino]methyl}-5,6-dihydro-5-oxo-11-H-indeno[1,2-c]isoquinoline] | 0.045 µM
O=c1[nH]c2c(c3ccc(F)cc13)Cc1c(CNC3CCCC3)cccc1-2 [Va-3, 10-((cyclopentylamino)methyl)-3-fluoro-6,11-dihydro-5H-indeno[1,2-c]isoquinolin-5-one] | 0.009 µM
O=c1[nH]c2c(c3ccccc13)Cc1c(CN3CC[C@H](F)C3)cccc1-2 [IIIa-11, 10-[S-(3-Fluoropyrrolidino)methyl]-5,6-dihydro-5-oxo-11-H-indeno[1,2-c]isoquinoline] | 0.012 µM
O=C(CN1CCN(Cc2ccc3c(c2)Cc2c-3[nH]c(=O)c3ccccc23)CC1)N1CCCC1 [IIb-157, 9-{1-[4-(1-Pyrrolidinocarbonylmethyl)piperazino]methyl}-5,6-dihydro-5-oxo-11-H-indeno[1,2-c] isoquinoline] | 0.075 µM
CCOC(CN1CCN(Cc2ccc3c(c2)Cc2c-3[nH]c(=O)c3ccccc23)CC1)OCC [IIb-196, 9-{1-[4-(2,2-Diethoxyethyl)piperazino]methyl}-5,6-dihydro-5-oxo-11-H-indeno[1,2-c]isoquinoline] | 0.075 µM
CC(C)(C)OC(=O)N1CCC(NCc2ccc3c(c2)Cc2c-3[nH]c(=O)c3ccccc23)CC1 [IIb-92, 9-{N-[4-(1-Boc-piperidyl)]aminomethyl}-5,6-dihydro-5-oxo-11-H-indeno[1,2-c]isoquinoline] | > 0.06 µM
